Laboratory results reported in patent US20050178959A1, “Methods and compositions for assessing a sample by maldi mass spectrometry” (priority 2004, published 2005).
Non-standard residues stand in square brackets, D forms with d. No end group written: not given here. *: point of attachment. Biotin = O=C1N[C@H]2[C@H](CS[C@H]2CCCCC(=O)*)N1; pT = C[C@@H](OP(=O)(O)O)[C@H](N)C(=O)O; pS = N[C@@H](COP(=O)(O)O)C(=O)O

Assays:
[1] = test system: GST-CAP1 (a protein having PDZ domain); assay: Peptide capture on streptavidin-agarose beads in filter plate, tryptic digestion, MALDI MS detection of bound GST-CAP1; conditions: sample GST-CAP1; m/z as printed in cell above (1358.8 or 1152.6); signal size of about 1000 or more indicates significant binding
Method: (§1) To make the peptide array, the wells of a multiwell (i.e., 96-well filtration plate from Millipore having a pore size of 1.2 μm) filtration plate were first filled with a known volume of a suspension containing Streptavidin-linked agarose beads (Sigma). The biotinylated peptides were added (each in a separate well) and allowed to incubate with the avidin beads for a defined time interval following which vacuum (5-6 in. Hg) was applied to remove excess liquid. The immobilized peptides were then ready to be incubated with the protein mixture (e.g., a brain extract). After incubation, the peptide-protein complexes were washed in parallel, and subsequently subjected to enzymatic digestion (following in-gel digestion protocol). After digestion directly in the membrane plate, the digests were transferred to a MALDI plate for MS analysis, after concentration using a C18 resin-containing Millipore C18 ZIPTIP™ pipette tips.
(§2) In detail, 40 μL of streptavidin-agarose conjugate (Sigma S1638) was added to each well of a 96 well membrane filter plate washed with 200 μL of 1 mM TRIS HCl pH 7.5 (TRIS buffer) buffer using vacuum filtration. The beads were not allowed to dry out. The capture agents (e.g., biotinylated peptides, biotinylated antibodies, tagged proteins) were diluted with 1 mM TRIS HCl pH 7.5 buffer and 20 μL of each capture agent solution (at concentration of 1-2 mg/mL) was added to wells containing the avidin-agarose conjugate. The beads and capture agent were incubated for 1.5 to 2 hrs at room temperature using an orbital shaker (the plate was sealed during the incubation to avoid evaporation of the buffer). After incubation, excess solution was removed and the beads were washed with 200 μL of 1 mM TRIS HCl pH 7.5. A sample containing a protein of interest in TRIS buffer was added to the beads and the sample and beads were incubated overnight at room temperature using an orbital shaker (again using a sealed plate). The liquid was removed and the beads were washed using 200 μL of TRIS buffer. The capture agent-protein complexes, which are attached to the avidin-sepharose beads, were digested with 25 μL of trypsin in TRIS (concentration 20 μg/mL) at 45C for 45 min (again in a sealed plate). The 96 well plate containing the beads was placed in a manifold, and a vacuum was applied to collect each digest in a separate well of another 96-well plate. Using C18 ZIPTIP™ pipette tips (Millipore Corporation or equivalent) the digested peptides were extracted by prewashing the ZIPTIP™ with water/acetonitrile 1:1 then water containing 0.1% trifluoro-acetic acid, and then using the ZIPTIP™ pipette tips to capture the peptides from each well by moving each sample into and out of the tip at least 10 times, and wash the ZIPTIP™ pipette tip with water containing 0.1%TFA (trifluoroacetic acid). The peptides were eluted from the ZIPTIP™ pipette tip with MALDI matrix solution (e.g., 3-4 μL of HCCA at 0.5-1 mg/mL in actetonitrile/water or methanol/acetonitrile/water containing acetic acid) and spotted directly onto a MALDI sample plate.
(§3) The headers for each of the columns of Table 2 indicate, for each experiment, the peptide used as a capture agent. The first column of Table 2 indicates, for each experiment, the sample used. GST-CAP1, GST-FBP21, GST-14-3-3 are described above. “Brain extract” is a soluble protein extract of homogenized mouse brain, and, “QC” indicates the negative controls performed. M/z values indicate mass-to-charge ratios, and numbers in brackets indicate the size of the signal obtained, indicating the amount of the analytes present. In general, a signal size of about 1000 or more indicates significant binding.

p60Src = p60Src (Homo sapiens, UniProt P12931); assay: SmB immobilized on avidin beads incubated with Src, digestion, MALDI MS (QC); assay type: binding
Excerpt: The following were used as targets: GST-CAP1 (a protein having PDZ domain), GST-FBP21 (a protein having WW domain), GST-14-3-3, p60Src (a protooncogene tyrosine protein kinase known not to bind to any of the peptides listed above), and a mouse brain protein extract. Four of the 8 target peptides are proline-rich peptides, which are identified as SmB, CDC25, LD10 and WBP1, and are known to bind SH3 domains.
as §1, with “After digestion directly in the membrane plate, the digests were transferred to a MALDI plate for MS analysis, after concentration using a C18 resin-containing Millipore C18 ZIPTIP™ pipette tips.” left out
Significant binding was detected between several capture agents and several probes.

GST-14-3-3 [2] = assay: Peptide capture on streptavidin-agarose beads in filter plate, tryptic digestion, MALDI MS detection of bound GST-14-3-3; assay type: binding; conditions: sample GST-14-3-3; for signal size (number in brackets) of MALDI MS signal: m/z1245.7, signal size of about 1000 or more indicates significant binding; for signal size (number in brackets) of second MALDI MS signal: m/z1255.9, for SmB the signal is […]
Method: as §1, §2, §3

[3] = test system: mouse brain protein extract; assay: Peptide capture of proteins from brain extract, tryptic digestion, MALDI MS; assay type: binding; conditions: for signal size of MALDI MS signal: sample brain extract (soluble protein extract of homogenized mouse brain), about 1000 or more indicates significant binding
Method: as §1
as §2, with “Using C18 ZIPTIP™ pipette tips (Millipore Corporation or equivalent) the digested peptides were extracted by prewashing the ZIPTIP™ with water/acetonitrile 1:1 then water containing 0.1% trifluoro-acetic acid, and then using the ZIPTIP™ pipette tips to capture the peptides from each well by moving each sample into and out of the tip at least 10 times, and wash the ZIPTIP™ pipette tip with water containing 0.1%TFA (trifluoroacetic acid). The peptides were eluted from the ZIPTIP™ pipette tip with MALDI matrix solution (e.g., 3-4 μL of HCCA at 0.5-1 mg/mL in actetonitrile/water or methanol/acetonitrile/water containing acetic acid) and spotted directly onto a MALDI sample plate.” left out

[4] = molecular target: T1, GST-FBP21 (a protein having WW domain) (Homo sapiens, UniProt O75554); assay: Peptide capture on streptavidin-agarose beads in filter plate, tryptic digestion, MALDI MS detection of bound GST-FBP21; conditions: sample GST-FBP21; m/z 1138.7 or 1152.8; signal size of about 1000 or more indicates significant binding
T1 construct: GST
T1 sequence (O75554 1-376): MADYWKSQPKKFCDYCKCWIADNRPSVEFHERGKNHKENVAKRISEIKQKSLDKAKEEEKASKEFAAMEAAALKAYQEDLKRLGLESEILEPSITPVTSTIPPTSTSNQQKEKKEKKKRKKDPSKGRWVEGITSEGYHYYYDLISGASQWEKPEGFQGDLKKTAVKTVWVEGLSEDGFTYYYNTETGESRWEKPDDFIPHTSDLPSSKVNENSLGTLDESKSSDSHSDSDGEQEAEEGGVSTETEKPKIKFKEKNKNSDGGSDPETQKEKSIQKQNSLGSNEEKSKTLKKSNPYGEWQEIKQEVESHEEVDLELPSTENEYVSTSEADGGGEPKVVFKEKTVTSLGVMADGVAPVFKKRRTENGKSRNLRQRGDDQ
Method: as §1, §2
The headers for each of the columns of Table 2 indicate, for each experiment, the peptide used as a capture agent. The first column of Table 2 indicates, for each experiment, the sample used. GST-CAP1, GST-FBP21, GST-14-3-3 are described above. “Brain extract” is a soluble protein extract of homogenized mouse brain, and, “QC” indicates the negative controls performed. […]

GST-14-3-3 [5] = assay: biotinylated peptide on streptavidin-agarose beads, pull-down, trypsin digest, MALDI-MS, ion m/z1245.7
[6] = molecular target: T2, GST-FBP21 (a protein having WW domain); assay: biotinylated peptide on streptavidin-agarose beads, pull-down, trypsin digest, MALDI-MS, ion m/z1138.7
T2 sequence (O75554 whole entry, species assumed, looked up): T1 sequence (O75554 1-376)

[7] = molecular target: GST-CAP1 (a protein having PDZ domain); assay: biotinylated peptide on streptavidin-agarose beads, pull-down, trypsin digest, MALDI-MS, ion m/z1358.8
[8] = molecular target: T2, GST-FBP21 (a protein having WW domain); assay: biotinylated peptide on streptavidin-agarose beads, pull-down, trypsin digest, MALDI-MS, ion m/z1152.8

Biotin-PPGMRPPPPGMRRGPPPPGMRPPRP [SmB]
signal size (number in brackets) of MALDI MS signal [1]: 0
binding of p60Src (p60Src): did not significantly bind
signal size (number in brackets) of MALDI MS signal (GST-14-3-3 [2]): (0)
signal size (number in brackets) of second MALDI MS signal (GST-14-3-3 [2]): (3,000) is
binding of WD11 repeat protein (WDR11) from brain extract ([3]; brain extract, spectra matched to known WD11 repeat protein (Table 3)): binds only the SmB peptide

Biotin-SGSGEQPLT*PVTDL [CDC25]
signal size (number in brackets) of MALDI MS signal [1]: (480)
signal size (number in brackets) of MALDI MS signal [4]: (500)
signal size (number in brackets) of MALDI MS signal (GST-14-3-3 [2]): (0)
signal size (number in brackets) of second MALDI MS signal (GST-14-3-3 [2]): (800)

Biotin-SGSGGAPPTPPPLPP [LD10]
signal size (number in brackets) of MALDI MS signal [1]: (1,600)
signal size (number in brackets) of MALDI MS signal [4]: (15,000)
signal size (number in brackets) of MALDI MS signal (GST-14-3-3 [2]): (150)

Biotin-SGSGGTPPPPYTVG [WBP1]
signal size (number in brackets) of MALDI MS signal [1]: 0
signal size (number in brackets) of MALDI MS signal [4]: (9,000)
signal size (number in brackets) of MALDI MS signal (GST-14-3-3 [2]): 0
signal size of MALDI MS signal [3]: <100

Biotin-SGSGVLIKRRST*EL-COOH [COXG]
signal size (number in brackets) of MALDI MS signal [1]: 0
signal size (number in brackets) of MALDI MS signal [4]: (30,000)
signal size (number in brackets) of MALDI MS signal (GST-14-3-3 [2]): (500)
signal size of MALDI MS signal [3]: <100

Biotin-SGSGVLIKRRSTEL-OH [COXD]
signal size (number in brackets) of MALDI MS signal [1]: (1,100)
signal size (number in brackets) of MALDI MS signal [4]: (200)
signal size (number in brackets) of MALDI MS signal (GST-14-3-3 [2]): (3600)
signal size of MALDI MS signal [3]: <50

B1: COXD biotinylated peptide (Biotin-…-COOH) (peptide)
peptide: Biotin-SGSGVLIKRRSTEL-OH
SMILES: CC[C@H](C)[C@H](NC(=O)[C@H](CC(C)C)NC(=O)[C@@H](NC(=O)CNC(=O)[C@H](CO)NC(=O)CNC(=O)[C@H](CO)NC(=O)CCCC[C@@H]1SC[C@@H]2NC(=O)N[C@@H]21)C(C)C)C(=O)N[C@@H](CCCCN)C(=O)N[C@@H](CCCNC(=N)N)C(=O)N[C@@H](CCCNC(=N)N)C(=O)N[C@@H](CO)C(=O)N[C@H](C(=O)N[C@@H](CCC(=O)O)C(=O)N[C@@H](CC(C)C)C(=O)O)[C@@H](C)O
signal size (GST-14-3-3 [5]): 3600
signal size [6]: 200
signal size [7]: 1100

B2: COXG biotinylated phosphopeptide (Biotin-…*EL-COOH) (peptide)
peptide: Biotin-SGSGVLIKRRS[pT]EL-OH
SMILES: CC[C@H](C)[C@H](NC(=O)[C@H](CC(C)C)NC(=O)[C@@H](NC(=O)CNC(=O)[C@H](CO)NC(=O)CNC(=O)[C@H](CO)NC(=O)CCCC[C@@H]1SC[C@@H]2NC(=O)N[C@@H]21)C(C)C)C(=O)N[C@@H](CCCCN)C(=O)N[C@@H](CCCNC(=N)N)C(=O)N[C@@H](CCCNC(=N)N)C(=O)N[C@@H](CO)C(=O)N[C@H](C(=O)N[C@@H](CCC(=O)O)C(=O)N[C@@H](CC(C)C)C(=O)O)[C@@H](C)OP(=O)(O)O
signal size (GST-14-3-3 [5]): 500
signal size [6]: 30000

B3: CDC25 biotinylated phosphopeptide (Biotin-…*PVTDL) (peptide)
peptide: Biotin-SGSGEQPL[pT]PVTDL
signal size [6]: 500
signal size [7]: 480

B4: Kir2.1* biotinylated phosphopeptide (Biotin-…*EI-COOH) (peptide)
peptide: Biotin-SGSGPRPLRRE[pS]EI-OH
SMILES: CC[C@H](C)[C@H](NC(=O)[C@H](CCC(=O)O)NC(=O)[C@H](COP(=O)(O)O)NC(=O)[C@H](CCC(=O)O)NC(=O)[C@H](CCCNC(=N)N)NC(=O)[C@H](CCCNC(=N)N)NC(=O)[C@H](CC(C)C)NC(=O)[C@@H]1CCCN1C(=O)[C@H](CCCNC(=N)N)NC(=O)[C@@H]1CCCN1C(=O)CNC(=O)[C@H](CO)NC(=O)CNC(=O)[C@H](CO)NC(=O)CCCC[C@@H]1SC[C@@H]2NC(=O)N[C@@H]21)C(=O)O
signal size [8]: 8000
signal size (GST-14-3-3 [5]): 8000

B5: WBP1 biotinylated peptide (Biotin-…) (peptide)
peptide: Biotin-SGSGGTPPPPYTVG
signal size [6]: 9000

B6: Kir2.1 biotinylated peptide (Biotin-…-COOH) (peptide)
peptide: Biotin-SGSGPRPLRRESEI-OH
SMILES: CC[C@H](C)[C@H](NC(=O)[C@H](CCC(=O)O)NC(=O)[C@H](CO)NC(=O)[C@H](CCC(=O)O)NC(=O)[C@H](CCCNC(=N)N)NC(=O)[C@H](CCCNC(=N)N)NC(=O)[C@H](CC(C)C)NC(=O)[C@@H]1CCCN1C(=O)[C@H](CCCNC(=N)N)NC(=O)[C@@H]1CCCN1C(=O)CNC(=O)[C@H](CO)NC(=O)CNC(=O)[C@H](CO)NC(=O)CCCC[C@@H]1SC[C@@H]2NC(=O)N[C@@H]21)C(=O)O
signal size [8]: 900
signal size (GST-14-3-3 [5]): 400
signal size [7]: 250
